Assays:
[1] = tested on: sleep-deprived healthy volunteers; assay: Safety/tolerability of a single dose in sleep-deprived healthy adults; type: in vivo, human; conditions: Modafinil 300 mg; moderate intensity
Description: (§1) During the day before dosing on Day 1, participants were administered the KSS at scheduled timepoints. A practice MWT session was performed on Day 1 treatment period 1 (only once during the entire study) to familiarize subjects with the procedures. Study drug was administered in the clinic in the evening on Day 1 of each treatment period. Subjects underwent the MWT and KSS at specified timepoints after the start of the infusion. Subjects were required to stay awake between the MWT tests. Following completion of the IV infusion on Day 2, subjects underwent an additional MWT test. When the final MWT test and cognitive testing were completed, subjects were allowed to sleep (recovery sleep) for approximately 6 hours. PSG recording was collected during this time. Subjects were discharged from the unit after completion on Day 2 with continuing actigraphy upon discharge (to begin on Day −6 before the next treatment period). The interval between each subsequent treatment period was at least 7 days to ensure that the subject's circadian rhythm had returned to a normal cycle. Subject's vital signs, including BP, were monitored during the dosing and testing period. Blood samples for determination of Compound A plasma concentrations were collected at specified timepoints on Days 1 and 2 of each treatment period. Subjects completed the Columbia-Suicide Severity Rating Scale (C-SSRS) during screening, before study drug administration, and before discharge on Day 2 of each treatment period.
Safety endpoints: adverse events (AEs), physical examinations, vital signs, 12-lead electrocardiograms (ECGs), clinical laboratory evaluations (hematology, blood chemistry, and urinalysis), drug-liking visual analogue scale, and Profile of Mood States.

[2] = tested on: sleep-deprived healthy volunteers; assay: Karolinska Sleepiness Scale (KSS) in sleep-deprived healthy volunteers; type: in vivo, human; conditions: for KSS Sleepy/Alert LS Mean / KSS Sleepy/Alert LS Mean Difference vs Placebo Estimate: M: Modafinil 300 mg
Description: as §1
Secondary endpoints: • PK parameters calculated from plasma concentrations of Compound A. • Scores for sleepiness on the Karolinska Sleepiness Scale (KSS).
The secondary efficacy endpoint was sleepiness/alertness as assessed by KSS at 14, 10, 6, and 2 hours predose (approximately between 7:45 AM to 7:45 PM); 2, 2.75, 4.75, 6.75, and 8.75 hours post infusion start (approximately between mid-night to 7 AM in the morning); and at 1.75 hours post infusion end. A higher value indicates more sleepiness, a lower value indicates more alertness. Prior to infusion, there were no statistically significant differences at any time point of observation in KSS score for Compound A 44 and 112 mg treatments when compared to placebo. […] On the average, for modafinil and Compound A 44 and 112 mg, there were about 1.6 to 3.7 points increase in the KSS postdose/the infusion start, relative to that prior to dosing during the daytime. However, for placebo, the increase in the average KSS is 4.9.

[3] = DELTA: AVERAGE POST - AVERAGE PRIOR
[4] = Modafinil 300 mg, 1.75 HOURS POST INFUSION END
[5] = Modafinil 300 mg, 2 HOURS PREDOSE
[6] = Modafinil 300 mg, 2.75 HOURS POST INFUSION START
[7] = Modafinil 300 mg, 4.75 HOURS POST INFUSION START
[8] = Modafinil 300 mg, 6 HOURS PREDOSE
[9] = Modafinil 300 mg, 6.75 HOURS POST INFUSION START
[10] = Modafinil 300 mg, 8.75 HOURS POST INFUSION START
[11] = Modafinil 300 mg, 10 HOURS PREDOSE
[12] = Modafinil 300 mg, 14 HOURS PREDOSE

SMILES: NC(=O)C[S+]([O-])C(c1ccccc1)c1ccccc1 (stereo not shown) [Modafinil, modafinil, reference compound]
- Drug-related TEAE of liver function test increased, number of subjects [1]: 1 subject
- KSS Sleepy/Alert LS Mean ([2]; 1.75 HOURS POST INFUSION END): 7.16
- KSS Sleepy/Alert LS Mean Difference vs Placebo Estimate ([2]; 1.75 HOURS POST INFUSION END): −0.99
- KSS Sleepy/Alert LS Mean ([2]; 2 HOURS PREDOSE): 3.32
- KSS Sleepy/Alert LS Mean Difference vs Placebo Estimate ([2]; 2 HOURS PREDOSE): −0.58
- KSS Sleepy/Alert LS Mean ([2]; 2.75 HOURS POST INFUSION START): 3.69
- KSS Sleepy/Alert LS Mean Difference vs Placebo Estimate ([2]; 2.75 HOURS POST INFUSION START): −3.16
- KSS Sleepy/Alert LS Mean ([2]; 4.75 HOURS POST INFUSION START): 4.32
- KSS Sleepy/Alert LS Mean Difference vs Placebo Estimate ([2]; 4.75 HOURS POST INFUSION START): −3.83
- KSS Sleepy/Alert LS Mean ([2]; 6 HOURS PREDOSE): 2.58
- KSS Sleepy/Alert LS Mean Difference vs Placebo Estimate ([2]; 6 HOURS PREDOSE): −0.22
- KSS Sleepy/Alert LS Mean ([2]; 6.75 HOURS POST INFUSION START): 5.79
- KSS Sleepy/Alert LS Mean Difference vs Placebo Estimate ([2]; 6.75 HOURS POST INFUSION START): −2.71
- KSS Sleepy/Alert LS Mean ([2]; 8.75 HOURS POST INFUSION START): 6.69
- KSS Sleepy/Alert LS Mean Difference vs Placebo Estimate ([2]; 8.75 HOURS POST INFUSION START): −1.65
- KSS Sleepy/Alert LS Mean ([2]; 10 HOURS PREDOSE): 2.32
- KSS Sleepy/Alert LS Mean Difference vs Placebo Estimate ([2]; 10 HOURS PREDOSE): −0.18
- KSS Sleepy/Alert LS Mean ([2]; 14 HOURS PREDOSE): 2.79
- KSS Sleepy/Alert LS Mean Difference vs Placebo Estimate ([2]; 14 HOURS PREDOSE): −0.26
- KSS Sleepy/Alert LS Mean ([2]; AVERAGE POST INFUSION START (2.75, 4.75, 6.75 AND 8.75 HOURS)): 5.12
- KSS Sleepy/Alert LS Mean ([2]; AVERAGE PRIOR TO INFUSION START (14, 10, 6, 2 HOURS PREDOSE)): 2.75
- KSS Sleepy/Alert LS Mean [2, 3]: 2.37
- KSS Sleepy/Alert LS Mean Difference vs Placebo Estimate [2, 3]: −2.53
- Difference between average KSS score post and prior to infusion start, LS Mean (SE) ([2]; Modafinil 300 mg): 2.37 (0.323)
- KSS Max [2, 4]: 9
- KSS Mean (SD) [2, 4]: 7.2 (1.80)
- KSS Median [2, 4]: 8.0
- KSS Min [2, 4]: 3
- KSS Max [2, 5]: 6
- KSS Mean (SD) [2, 5]: 3.3 (1.20)
- KSS Median [2, 5]: 3.0
- KSS Min [2, 5]: 1
- KSS Max [2, 6]: 6
- KSS Mean (SD) [2, 6]: 3.7 (1.63)
- KSS Median [2, 6]: 4.0
- KSS Min [2, 6]: 1
- KSS Max [2, 7]: 7
- KSS Mean (SD) [2, 7]: 4.3 (1.89)
- KSS Median [2, 7]: 4.0
- KSS Min [2, 7]: 1
- KSS Max [2, 8]: 7
- KSS Mean (SD) [2, 8]: 2.6 (1.35)
- KSS Median [2, 8]: 2.0
- KSS Min [2, 8]: 1
- KSS Max [2, 9]: 8
- KSS Mean (SD) [2, 9]: 5.8 (2.12)
- KSS Median [2, 9]: 6.0
- KSS Min [2, 9]: 2
- KSS Max [2, 10]: 9
- KSS Mean (SD) [2, 10]: 6.7 (1.92)
- KSS Median [2, 10]: 7.0
- KSS Min [2, 10]: 3
- KSS Max [2, 11]: 5
- KSS Mean (SD) [2, 11]: 2.3 (1.11)
- KSS Median [2, 11]: 2.0
- KSS Min [2, 11]: 1
- KSS Max [2, 12]: 5
- KSS Mean (SD) [2, 12]: 2.8 (1.08)
- KSS Median [2, 12]: 3.0
- KSS Min [2, 12]: 1
- KSS score ([2]; Modafinil 300 mg, 1.75 hours post infusion end): 7.16
